Source: ChEMBL document CHEMBL1149982, “Synthesis and in vitro profile of 7-substituted quinoline chromanols as novel, non-acidic LTB4 antagonists” (Bioorg Med Chem Lett, 1995)

Columns and labels:
[1] = target: Leukotriene B4 receptor 1 (Homo sapiens, UniProt Q15722); assay: In vitro inhibitory activity against human neutrophil leukotriene B4 (LTB4)
[2] = target: T1, Cysteinyl leukotriene receptor 1 (Cavia porcellus, UniProt Q2NNR5); assay: In vitro inhibitory activity against leukotriene D4 receptor
T1 sequence (Q2NNR5 whole entry): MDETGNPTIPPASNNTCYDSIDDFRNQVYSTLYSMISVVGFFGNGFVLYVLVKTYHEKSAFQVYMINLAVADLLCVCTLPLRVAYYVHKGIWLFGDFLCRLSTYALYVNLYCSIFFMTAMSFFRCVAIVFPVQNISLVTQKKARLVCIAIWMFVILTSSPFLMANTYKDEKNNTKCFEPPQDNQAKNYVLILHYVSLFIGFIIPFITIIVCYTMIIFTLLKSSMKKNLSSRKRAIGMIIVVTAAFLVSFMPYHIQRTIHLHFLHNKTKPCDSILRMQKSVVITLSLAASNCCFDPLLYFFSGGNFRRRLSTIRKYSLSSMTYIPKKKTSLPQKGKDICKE

[3] = target: T1, Cysteinyl leukotriene receptor 1; assay: In vitro inhibitory activity against human leukotriene D4 (LTD4)

Sequence of Leukotriene B4 receptor 1 (Q15722 whole entry): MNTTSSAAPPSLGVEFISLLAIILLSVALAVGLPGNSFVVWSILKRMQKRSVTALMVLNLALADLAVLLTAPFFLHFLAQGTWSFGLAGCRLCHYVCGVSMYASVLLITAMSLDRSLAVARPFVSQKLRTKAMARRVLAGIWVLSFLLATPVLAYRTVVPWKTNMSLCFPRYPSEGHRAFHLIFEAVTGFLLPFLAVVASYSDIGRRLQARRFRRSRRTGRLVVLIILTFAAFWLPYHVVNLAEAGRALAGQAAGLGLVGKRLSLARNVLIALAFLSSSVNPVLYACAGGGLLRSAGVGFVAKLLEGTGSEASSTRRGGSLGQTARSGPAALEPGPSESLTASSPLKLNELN

SMILES	Ki [1]	Ki [2]	Ki [3]
C[C@H](Oc1ccc2c(c1)OC[C@@H](Cc1cccnc1)[C@@H]2O)c1ccc2ccccc2n1	1.9 µM	> 50 µM	–
CC(Oc1ccc2c(c1)OC[C@H](Cc1ccccn1)[C@@H]2O)c1ccc2ccccc2n1 (stereo partly specified)	3.3 µM	> 50 µM	–
C[C@@H](Oc1ccc2c(c1)OC[C@@H](Cc1cccnc1)[C@@H]2O)c1ccc2ccccc2n1	0.33 µM	> 50 µM	–
O[C@@H]1c2cc(OCc3ccc4ccccc4n3)ccc2OC[C@@H]1Cc1cccnc1	38 µM	–	1600 nM
CC(Oc1ccc2c(c1)OC[C@H](Cc1cccnc1)[C@@H]2O)c1ccc2ccccc2n1 (stereo partly specified)	5.2 µM	> 50 µM	–

The next lines start with the values.

Ki [1]	Ki [2]	Ki [3]	SMILES
0.24 µM	> 50 µM	–	CC(Oc1ccc2c(c1)OC[C@@H](Cc1ccccn1)[C@@H]2O)c1ccc2ccccc2n1 (stereo partly specified)
–	1.3 µM	–	O[C@@H]1c2ccc(OCc3ccc4ccccc4n3)cc2OC[C@@H]1Cc1cccnc1
–	4.1 µM	–	O[C@@H]1c2ccc(OCc3ccc4ccccc4n3)cc2OC[C@H]1Cc1cccnc1
16 µM	1 µM	–	O[C@@H]1c2cc(OCc3ccc4ccccc4n3)ccc2OC[C@H]1Cc1cccnc1
